Data on 1 molecule can be found in article PMC4595849, “Rational Design of Benzylidenehydrazinyl-Substituted Thiazole Derivatives as Potent Inhibitors of Human Dihydroorotate Dehydrogenase with in Vivo Anti-arthritic Activity” (Scientific Reports, 2015).

In one data set the target is T1, hDHODH (Met30-Arg396) (Homo sapiens, UniProt Q02127).
T1 construct: hDHODH (Met30-Arg396) was expressed and purified in the same manner as described in our recently published work; made in house
Kind of data set: hDHODH enzyme inhibition, DCIP assay. In kind it is biochemical. From the text: The plasmid coding for human DHODH was kindly provided by Prof. Jon Clardy (Harvard Medical School)[7]. hDHODH (Met30-Arg396) was expressed and purified in the same manner as described in our recently published work[38]. We determined the effect of benzylidenehydrazinyl-substituted thiazole derivatives to inhibit hDHODH by using a DCIP assay method.

For data set [1], the system named is Wistar rats with collagen-induced arthritis (CIA). The data set is described as follows: collagen-induced arthritis (CIA) rat efficacy study. It is filed as in vivo. To be noted: for arthritis score: day 28, maximum score 8. As to the method: Compound 19 and methotrexate were injected intraperitoneally once per day for 28 days into the Wistar rats with collagen-induced arthritis (CIA). The swelling scores of the arthritis and morphological observations of the rats’ joint tissues were employed to examine the anti-arthritic effect of compound 19 (Fig. 5). With the onset of arthritis, the swelling scores were an indication of the disease states. The maximum score was 8, which is the sum of the scores from both hind paws of each rat and indicates a severe arthritis state. During the experiment, the control rats had normal eating patterns, shiny hair and continuously increasing body weight.
Adult male Wistar rats (120–140 g) were purchased from Shanghai SLRC Laboratory animal company and housed in standard pathogen-free cages. The environment was climate-controlled (20–25 °C, 50–60% relative humidity) with a 12-hour light and 12-hour dark cycle as described previously. Sterilized food and water were provided naturally. All procedures involving animals conform to the Chinese government guidelines for animal experiments, and were conducted with approval of the Institutional Animal Care and Use Committee of East China University of Science & Technology. Bovine type II collagen (CII, Chondrex, USA) was emulsified in the same manner as that conducted previously to get the CIA model. Specifically, 49 rats were randomly assigned into five groups: normal control (solvent, i.p., n = 6), CIA model (solvent, i.p., n = 11), Methotrexate-treated (0.3 mg/kg, i.p., n = 10), compound 19-treated (5 mg/kg, i.p., n = 11) and compound 19-treated (30 mg/kg, i.p., n = 11) groups. Methotrexate, reported to has a therapeutic effect on rheumatoid arthritis, was used as the positive control in this study. The main workflows of this experiment were consistent with that reported recently. During the 28 days of the experiment, compound 19 (5 mg/kg and 30 mg/kg) and Methotrexate (0.3 mg/kg) were injected intraperitoneally once every day. At the same time, the normal control group and model group were administered the same amount of solution. The solvent of 19 was made up of 5% DMSO, 45% saline and 50% PEG400.
In this study, the clinical-mimic arthritis was observed and the severity was assessed by the same criteria as that applied in reference 65: 0, normal, without any swelling; 1, mild swelling; 2, swelling; 3, significant swelling; 4, severe swelling. The maximum score was 8, which was the sum of the scores from both hind paws of each rat. When arthritic signs appeared, the incidence and severity of the arthritis in rats with different treatments were evaluated via arthritis scores recorded every 2 days under blinded conditions. Measurement of body weight was taken every 3 days. All Wistar rats were killed after 28 day’s trails. Pathological detections against the whole knee joints of the rats were conducted using the same method as described previously. Mean ± standard deviation […] was applied to present the data in this study. SPSS was used to evaluate the statistical significance of differences among the groups. P ≤ 0.05 was the threshold to be statistically significant.

The nature of another data set: in vivo. To be noted: male, Sprague-Dawley, rat, po, 10 mg/kg.
Data set [2] in a line: single dose pharmacokinetic study in rats (IV and PO). The following applies: male, Sprague-Dawley, rat, plasma, 1 mg/kg.
Method: (§1) Male Sprague-Dawley rats were raised according to the Guide for the Care and Use of Laboratory Animals. […] Heparin sodium was applied as the anticoagulant of the blood samples. Based on the LC/MS/MS quantitative data, pharmacokinetic parameters were analyzed using WinNonlin5.2 with noncompartment model.

Values joined by “and” are separate entries in the source; they are usually repeats but may differ in a detail not shown here. Equal entries are not always repeated.

T1 sequence (Q02127 29-395): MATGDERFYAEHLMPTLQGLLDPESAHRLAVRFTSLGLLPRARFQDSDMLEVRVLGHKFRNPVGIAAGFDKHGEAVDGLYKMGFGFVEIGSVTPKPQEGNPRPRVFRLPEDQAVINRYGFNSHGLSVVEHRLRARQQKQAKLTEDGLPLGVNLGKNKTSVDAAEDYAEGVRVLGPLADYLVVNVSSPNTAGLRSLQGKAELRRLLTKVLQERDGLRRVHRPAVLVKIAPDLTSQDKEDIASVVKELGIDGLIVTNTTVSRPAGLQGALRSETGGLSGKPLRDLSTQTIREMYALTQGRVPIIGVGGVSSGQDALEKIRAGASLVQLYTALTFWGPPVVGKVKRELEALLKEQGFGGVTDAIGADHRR
Method for in vivo: as §1

As for `O=C(O)c1ccccc1/C=N/Nc1nc(-c2ccccc2Cl)cs1` [Compound 19, (E)-2-((2-(4-(2-chlorophenyl)thiazol-2-yl)hydrazono)methyl)benzoic acid], the “inhibition of hDHODH (in words)” value against hDHODH (Met30-Arg396) is listed as “IC50 values in the double-digit nanomolar range”. The same molecule displayed an LLE at hDHODH (Met30-Arg396) (LLE = pIC50 − clogP) of 3.59. Besides, the “fold increase in potency compared to 18” value at hDHODH (Met30-Arg396) (hDHODH IC50 relative to hydroxy-substituted derivative 18) turned out to be 43 fold. The IC50 on hDHODH (Met30-Arg396) (hDHODH, mean ± SD of three independent experiments, IC50 measured if inhibition rate at 10 μM was larger than 50%) was 32 nM and 32.2 nM. Moreover, the values for the arthritis score entry in data set [1] (5 mg/kg i.p. daily) and in data set [1] (30 mg/kg i.p. daily) were “around 5” and roughly 3, respectively. In data set [1] (5 and 30 mg/kg i.p. daily for 28 days), the “anti-arthritic effect (in words)” value was “significant dose-dependent anti-arthritic effect”. For the same molecule, the “histological changes in joint tissues (H&E)” value in data set [1] (both dosages, compared to CIA rats) is listed as “evidently alleviated”. Further, the “influence on body weight” value in data set [1] (i.p. daily for 28 days, versus model group) is “no obvious influence on increase in body weight”. The concentration in the data set “in vivo” peaked (Cmax) at 5310 ± 1910 ng/mL. The half-life in data set [2] is 9.69 ± 3.15 h.
